The source of these data is patent publication US9632085B2, “Rapid antibiotic susceptibility testing” (PRESIDENT AND FELLOWS OF HARVARD COLLEGE, priority 2012, dated 2017).

For one test, the system named is E. coli. Briefly: Antibiotic susceptibility from single bacterium: FcMBL bead capture, gel matrix, resazurin/Sytox Green 11 live-dead imaging. It counts as cell-based. To be noted: kanamycin at 50 μg/ml in BHI; captured E. coli grown in gel matrix; time after antibiotic addition. As for the experimental part: Bacteria in a biological sample were captured by FcMBL coated magnetic beads. The bead/bacteria were washed and added to a microscope compatible surface (for example, plasma treated coverslip or glass bottom microplates) and immobilized by an underlying magnet. A low melt agarose gel 37° C. containing growth media (BHI), resazurin (a stain for labeling live cells), and Sytox Green 11 (a stain for labeling dead cells) was overlaid on the bacteria-bound FcMBL magnetic beads to immobilize and/or secure the bacteria in place. In some embodiments where the bead/bacteria were spotted on glass bottom microplates, the wells were filled with growth medium containing fluorescent stains for live and/or dead cells. The captured bacteria were incubated on the slide or in the wells for about 1-2 hours at about 36-37° C. and imaged by microscopy, e.g., fluorescent microscopy. Live cells could be identified by resorufin (metabolized resazurin) stain and coordinates of the live cells could be determined and stored for iterative imaging. […] Bacteria can be observed for, for example, growth in the presence of the antibiotics (to determine the resistance of the bacteria to the particular antibiotics), cell death determined by fluorescent stain for dead cells (to determine bactericidal activity), and/or inhibition of growth (to determine bacteriostatic activity). […]

The next test relates to DH5alpha E. coli. As to the kind of experiment: FcMBL bead captured bacteria cultured 2 hours in LB with or without antibiotic, quantified on LB Agar plates. It counts as cell-based. The following applies: 2 hours at 37° C. in LB; Carbenicillin 100 μg/ml (FIG. 3 legend); range of titers down to 300 colonies. As for the experimental part:
In preliminary studies, the inventors tested the discrimination of the antibiotic susceptibility assay described herein with a range of titers of DH5alpha E. coli (corresponding to blood titers from a range of sepsis patients from septic shock to SIRS) FcMBL bead captured bacteria were cultured for 2 hours at 37° C. with vigorous agitation/aeration in Luria Broth (LB) or in LB supplemented with the bacteriocidal antibiotic Carbenicillin or the bacteriostatic antibiotic Spectomycin. The bacteria were quantified on LB Agar plates. In all cases, the inventors were able to discriminate between the growth in LB compared with growth in LB with bacteriocidal or bacteriostatic antibiotic (see FIG. 3).

Take `NC[C@H]1O[C@H](O[C@H]2[C@H](O)[C@@H](O[C@H]3O[C@H](CO)[C@@H](O)[C@H](N)[C@H]3O)[C@H](N)C[C@@H]2N)[C@H](O)[C@@H](O)[C@@H]1O` [Kanamycin]: in the test with E. coli, the “color change from red-resorufin to green Sytox green 11 (cell death) observed for some of the bacteria” value is at most 5 min and the “complete effect for all cells in the tracked fields of vision” value was in the range of 30 to 40 min.
On to `CC1(C)S[C@@H]2[C@H](NC(=O)C(C(=O)O)c3ccccc3)C(=O)N2[C@H]1C(=O)O` (stereo partly drawn) [Carbenicillin], for which, in the test on DH5alpha E. coli, the “bacterial counts compared with LB and LB with bacteriostatic antibiotic” value is recorded as “lowest of the three conditions tested”.
